Where a name gives a salt, the structure may show the parent alone.

In this assay the test system is E. coli strain W3110. Nature of the assay: Synergy assays: Biolog chemical sensitivity panels with Group IB metal, coefficient of drug interaction (CDI) from relative growth. Format: cell-based. Conditions: for CDI (coefficient of drug interaction), gold + biocide: Gold (μM); for CDI (coefficient of drug interaction), copper mixed with biocide: Copper (mM) section.
[1] abbreviates: Copper (mM), 1st of 3 copper concentrations (head line not shown), biocide concentration 4 of 4, E. coli.
Setting [2] is: Copper (mM), 2nd of 3 copper concentrations (head line not shown), biocide concentration 3 of 4, E. coli.
Setting [3] is: Copper (mM), 2nd of 3 copper concentrations (head line not shown), biocide concentration 4 of 4, E. coli.
Where [4] appears, read: Copper (mM), 3rd of 3 copper concentrations (head line not shown), biocide concentration 4 of 4, E. coli.
The mark [5] stands for this setting: first of 3 gold concentrations, biocide concentration 4 of 4.
Setting [6] is: second of 3 gold concentrations, biocide concentration 4 of 4.
Setting [7] is: third of 3 gold concentrations, biocide concentration 4 of 4.
Setting [8] is: Silver 0.5 μM, biocide concentration 3 of 4.
The mark [9] stands for this setting: Silver 0.5 μM, biocide concentration 4 of 4.
Setting [10] is: Silver 1.0 μM, biocide concentration 3 of 4.
[11] abbreviates: Silver 1.0 μM, biocide concentration 4 of 4.
[12] abbreviates: Silver 5.0 μM, biocide concentration 3 of 4.
The mark [13] stands for this setting: Silver 5.0 μM, biocide concentration 4 of 4.
Where [14] appears, read: 1st of 3 copper concentrations (value not shown), 4th of four biocide concentrations.
[15] abbreviates: 2nd of 3 copper concentrations (value not shown), 4th of four biocide concentrations.
Where [16] appears, read: 3rd of 3 copper concentrations (value not shown), 4th of four biocide concentrations.
Where [17] appears, read: Gold section of Table 5, first of three gold concentrations (μM, value not given), biocide concentration 4 of 4.
Where [18] appears, read: Gold section of Table 5, second of three gold concentrations (μM, value not given), biocide concentration 4 of 4.
The mark [19] stands for this setting: Gold section of Table 5, third of three gold concentrations (μM, value not given), biocide concentration 4 of 4.
[20] abbreviates: Silver 0.5 μM, biocide concentration 1 of 4.
Setting [21] is: Silver 0.5 μM, biocide concentration 2 of 4.
[22] abbreviates: Silver 1.0 μM, biocide concentration 1 of 4.
Setting [23] is: Silver 1.0 μM, biocide concentration 2 of 4.
The mark [24] stands for this setting: Silver 5.0 μM, biocide concentration 1 of 4.
[25] abbreviates: Silver 5.0 μM, biocide concentration 2 of 4.

Take `Cc1onc(-c2ccccc2Cl)c1C(=O)N[C@@H]1C(=O)N2[C@@H]1SC(C)(C)[C@@H]2C(=O)O` [cloxacillin]: the “CDI (coefficient of drug interaction)” value is “Tox” under setting [1], “Tox” under setting [2], “Tox” under setting [3] and “Tox” under setting [4]. Moreover, the “CDI (coefficient of drug interaction), gold + biocide” value (“CDI … gold + biocide” below) is given as “Tox” under setting [5], “Tox” under setting [6] and “Tox” under setting [7]. The CDI entry reads like this: under setting [8], “Tox”; under setting [9], “Tox”; under setting [10], “Tox”; under setting [11], “Tox”; under setting [12], “Tox”; under setting [13], “Tox”.

Consider `CCn1cc(C(=O)O)c(=O)c2cc(F)c(N3CCNC(C)C3)c(F)c21` (stereo not drawn) [lomefloxacin], for which the “CDI (coefficient of drug interaction)” value (Gold 50 μM, biocide concentration 4 of 4, E. coli) was “Tox”.

For the compound `CN[C@@H]1[C@@H](O)[C@@H](O[C@@H]2[C@@H](O)[C@H](O[C@H]3O[C@H]([C@@H](C)O)[C@@H](O)[C@H](O)[C@H]3N)[C@@H](N)C[C@H]2N)OC[C@]1(C)O` [geneticin (G418)], the “CDI (coefficient of drug interaction), copper mixed with biocide” value (from here on “CDI … with biocide”) was determined as 0.97 (1st of 3 copper concentrations (value not shown), 1st of four biocide concentrations); 0.87 (1st of 3 copper concentrations (value not shown), 2nd of four biocide concentrations); 0.86 (1st of 3 copper concentrations (value not shown), 3rd of four biocide concentrations); 0.88 under setting [14]; 0.73 (2nd of 3 copper concentrations (value not shown), 1st of four biocide concentrations); 0.71 (2nd of 3 copper concentrations (value not shown), 2nd of four biocide concentrations). Besides, the “CDI … with biocide” value by setting is: (2nd of 3 copper concentrations (value not shown), 3rd of four biocide concentrations) 0.71; under setting [15], “Tox”; (3rd of 3 copper concentrations (value not shown), 1st of four biocide concentrations) 0.54; (3rd of 3 copper concentrations (value not shown), 2nd of four biocide concentrations) 0.50; (3rd of 3 copper concentrations (value not shown), 3rd of four biocide concentrations) 0.48; under setting [16], 0.44. For the same compound, the “CDI (coefficient of drug interaction)” value (Gold section of Table 5, first of three gold concentrations (μM, value not given), biocide concentration 1 of 4) is 1.08; the “CDI (coefficient of drug interaction)” value (Gold section of Table 5, first of three gold concentrations (μM, value not given), biocide concentration 2 of 4) is on record as 1.00; the “CDI (coefficient of drug interaction)” value (Gold section of Table 5, first of three gold concentrations (μM, value not given), biocide concentration 3 of 4) worked out at 1.01; the “CDI (coefficient of drug interaction)” value under setting [17] worked out at 0.95; the “CDI (coefficient of drug interaction)” value (Gold section of Table 5, second of three gold concentrations (μM, value not given), biocide concentration 1 of 4) stood at 1.05; the “CDI (coefficient of drug interaction)” value (Gold section of Table 5, second of three gold concentrations (μM, value not given), biocide concentration 2 of 4) stood at 1.03. The “CDI (coefficient of drug interaction)” value (Gold section of Table 5, second of three gold concentrations (μM, value not given), biocide concentration 3 of 4) came out at 1.00; the “CDI (coefficient of drug interaction)” value under setting [18] is reported as 1.02; the “CDI (coefficient of drug interaction)” value (Gold section of Table 5, third of three gold concentrations (μM, value not given), biocide concentration 1 of 4) was determined as 1.05; the “CDI (coefficient of drug interaction)” value (Gold section of Table 5, third of three gold concentrations (μM, value not given), biocide concentration 2 of 4) worked out at 1.04; the “CDI (coefficient of drug interaction)” value (Gold section of Table 5, third of three gold concentrations (μM, value not given), biocide concentration 3 of 4) turned out to be 1.05; the “CDI (coefficient of drug interaction)” value under setting [19] came to 1.11. Moreover, the CDI is, setting by setting: under setting [20], 1.04; under setting [21], 0.96; under setting [8], 0.76; under setting [9], “Tox”; under setting [22], 0.94; under setting [23], 0.82. Further, the CDI is 0.31 under setting [10]; “Tox” under setting [11]; 0.48 under setting [24]; 0.49 under setting [25]; 0.23 under setting [12]; “Tox” under setting [13].

As to `N=C(N)N` [guanidine hydrochloride], the “CDI … with biocide” value by setting is: under setting [14], “Tox”; under setting [15], “Tox”; under setting [16], “Tox”. For the same compound, the “CDI (coefficient of drug interaction)” value is “Tox” under setting [17], “Tox” under setting [18] and “Tox” under setting [19]. Further, the “CDI (coefficient of drug interaction), silver + biocide” value runs as follows: (Silver 0.5 μM, 4th of four biocide concentrations, E. coli) “Tox”; (Silver 1.0 μM, 4th of four biocide concentrations, E. coli) “Tox”; (Silver 5.0 μM, 4th of four biocide concentrations, E. coli) “Tox”.

Regarding `O=[N+]([O-])c1ccc(O)c([N+](=O)[O-])c1` [2,4-dintrophenol], the “CDI (coefficient of drug interaction)” value by setting is: (Copper (mM), 1st of 3 copper concentrations (head line not shown), biocide concentration 1 of 4, E. coli) 0.87; (Copper (mM), 1st of 3 copper concentrations (head line not shown), biocide concentration 2 of 4, E. coli) 0.83; (Copper (mM), 1st of 3 copper concentrations (head line not shown), biocide concentration 3 of 4, E. coli) 1.10; under setting [1], “Tox”; (Copper (mM), 2nd of 3 copper concentrations (head line not shown), biocide concentration 1 of 4, E. coli) 0.76; (Copper (mM), 2nd of 3 copper concentrations (head line not shown), biocide concentration 2 of 4, E. coli) 0.64. Also, the “CDI (coefficient of drug interaction)” value by setting is: under setting [2], 0.99; under setting [3], “Tox”; (Copper (mM), 3rd of 3 copper concentrations (head line not shown), biocide concentration 1 of 4, E. coli) 0.50; (Copper (mM), 3rd of 3 copper concentrations (head line not shown), biocide concentration 2 of 4, E. coli) 0.49; (Copper (mM), 3rd of 3 copper concentrations (head line not shown), biocide concentration 3 of 4, E. coli) 1.14; under setting [4], “Tox”. Besides, the “CDI … gold + biocide” value is on record as 1.05 (first of 3 gold concentrations, biocide concentration 1 of 4); 1.02 (first of 3 gold concentrations, biocide concentration 2 of 4); 1.27 (first of 3 gold concentrations, biocide concentration 3 of 4); “Tox” under setting [5]; 1.02 (second of 3 gold concentrations, biocide concentration 1 of 4); 0.94 (second of 3 gold concentrations, biocide concentration 2 of 4). Moreover, the “CDI … gold + biocide” value is, setting by setting: (second of 3 gold concentrations, biocide concentration 3 of 4) 1.02; under setting [6], “Tox”; (third of 3 gold concentrations, biocide concentration 1 of 4) 0.85; (third of 3 gold concentrations, biocide concentration 2 of 4) 0.74; (third of 3 gold concentrations, biocide concentration 3 of 4) 0.61; under setting [7], “Tox”. Further, the CDI under setting [20] is listed as 0.72; the CDI under setting [21] worked out at 0.80; the CDI under setting [8] worked out at 0.86; the CDI result under setting [9] is “Tox”; the CDI under setting [22] was 0.91; the CDI under setting [23] is given as 0.83. Moreover, the CDI reads like this: under setting [10], 1.02; under setting [11], “Tox”; under setting [24], 1.10; under setting [25], 1.04; under setting [12], 1.04; under setting [13], “Tox”.

`Nc1ccc(S(=O)(=O)Nc2ncccn2)cc1` [sulfadiazine]: the “cell toxicity / growth curves with and without silver” value is given as “enhanced cell toxicity”.
